In ChEMBL document CHEMBL1201862, “PubChem BioAssay data set” (2004):
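Tested at 5 concentrations; 48 h exposure; 96-well plates; endpoints linearly interpolated, else capped at highest concentration. GI50 is the concentration that inhibits growth by half.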 The source made the active and inactive calls. Cut-off read from the data, not from the text of the source: active = GI50 up to about 1.1 µM and inactive = higher.

Key:
Experiment in all cases: growth of human tumour cells (NCI), 48 h
SK-MEL-2 = tested on: SK-MEL-2
M14 = tested on: M14
SK-MEL-5 = tested on: SK-MEL-5
MOLT-4 = tested on: MOLT-4
HCT-15 = tested on: HCT-15
SNB-75 = tested on: SNB-75
SW-620 = tested on: SW-620
ACHN = tested on: ACHN
SF-295 = tested on: SF-295
HT-29 = tested on: HT-29
HCT-116 = tested on: HCT-116
UACC-62 = tested on: UACC-62
K562 = tested on: K562
RPMI-8226 = tested on: RPMI-8226
NCI-H226 = tested on: NCI-H226
RXF 393 = tested on: RXF 393
SF-539 = tested on: SF-539
U-251 = tested on: U-251
SK-MEL-28 = tested on: SK-MEL-28
A498 = tested on: A498

| SMILES | GI50 (SK-MEL-2) | GI50 (M14) | GI50 (SK-MEL-5) | GI50 (MOLT-4) | GI50 (HCT-15) [µM] | GI50 (SNB-75) | GI50 (SW-620) | GI50 (ACHN) | GI50 (SF-295) | GI50 (HT-29) | GI50 (HCT-116) | GI50 (UACC-62) | GI50 (K562) | GI50 (RPMI-8226) | GI50 (NCI-H226) | GI50 (RXF 393) | GI50 (SF-539) | GI50 (U-251) | GI50 (SK-MEL-28) | GI50 (A498) |
| --- | --- | --- | --- | --- | --- | --- | --- | --- | --- | --- | --- | --- | --- | --- | --- | --- | --- | --- | --- | --- |
| COc1cccc(C2c3cc4c(cc3OC(N3CCOCC3)C2C)OCO4)c1 (stereo unspecified) | 12.2 µM (inactive) | 7.05 µM (inactive) | 4.37 µM (inactive) | 2.7 µM (inactive) | 6.31 | 28.3 µM (inactive) | 3.19 µM (inactive) | 14.7 µM (inactive) | 9.64 µM (inactive) | 4.68 µM (inactive) | 13.2 µM (inactive) | 8.47 µM (inactive) | 3.1 µM (inactive) | > 100 µM (inactive) | 15.6 µM (inactive) | – | – | – | – | – |
| CCN(CC)CCO[Si](OCCN(CC)CC)(OCCN(CC)CC)OCCN(CC)CC | > 100 µM (inactive) | > 100 µM (inactive) | > 100 µM (inactive) | – | > 100 | > 100 µM (inactive) | > 100 µM (inactive) | – | > 100 µM (inactive) | > 100 µM (inactive) | > 10 µM (inactive) | > 100 µM (inactive) | – | – | 88.5 µM (inactive) | > 100 µM (inactive) | > 100 µM (inactive) | > 100 µM (inactive) | > 100 µM (inactive) | – |
| CSc1sc(C)cc1-c1nsc(=O)o1 | – | > 100 µM (inactive) | > 100 µM (inactive) | > 100 µM (inactive) | > 100 | – | > 100 µM (inactive) | > 100 µM (inactive) | > 100 µM (inactive) | > 100 µM (inactive) | > 100 µM (inactive) | > 100 µM (inactive) | > 100 µM (inactive) | > 100 µM (inactive) | – | > 100 µM (inactive) | – | > 100 µM (inactive) | > 100 µM (inactive) | > 100 µM (inactive) |
| COc1ccc2c(c1)OC(c1ccccc1O)CC2=O (stereo unspecified) | 26.6 µM (inactive) | 39.9 µM (inactive) | 40 µM (inactive) | 26.1 µM (inactive) | 27.2 | 30.9 µM (inactive) | 40.6 µM (inactive) | 46.2 µM (inactive) | 45.7 µM (inactive) | 74.6 µM (inactive) | 29.5 µM (inactive) | – | 28.3 µM (inactive) | 23.9 µM (inactive) | – | – | 45.9 µM (inactive) | 44.5 µM (inactive) | 48.2 µM (inactive) | 53.1 µM (inactive) |
| COc1ccc(NC(=O)C(=O)NNC(=O)c2sc(NNC(C)=O)nc2C)c([N+](=O)[O-])c1 | > 100 µM (inactive) | > 100 µM (inactive) | > 100 µM (inactive) | 36 µM (inactive) | 91.6 | – | 35.6 µM (inactive) | 45.5 µM (inactive) | > 100 µM (inactive) | > 100 µM (inactive) | > 100 µM (inactive) | 82.6 µM (inactive) | 37.1 µM (inactive) | 65.9 µM (inactive) | > 100 µM (inactive) | – | > 100 µM (inactive) | > 100 µM (inactive) | > 100 µM (inactive) | 33.3 µM (inactive) |
| CCOC(=O)c1sc2nc(SC)nc(N3CCCCC3)c2c1N | > 100 µM (inactive) | > 100 µM (inactive) | > 100 µM (inactive) | > 100 µM (inactive) | > 100 | > 100 µM (inactive) | > 100 µM (inactive) | > 100 µM (inactive) | > 100 µM (inactive) | > 100 µM (inactive) | > 100 µM (inactive) | > 100 µM (inactive) | > 100 µM (inactive) | > 100 µM (inactive) | > 100 µM (inactive) | > 100 µM (inactive) | – | > 100 µM (inactive) | > 100 µM (inactive) | > 100 µM (inactive) |
| CCOC(=O)C1(C#N)C(c2ccccc2)CC(O)(c2ccc(OC)cc2)C(C(=O)c2ccc(OC)cc2)C1c1ccccc1 (stereo unspecified) | > 100 µM (inactive) | > 100 µM (inactive) | > 100 µM (inactive) | > 100 µM (inactive) | > 100 | 27.7 µM (inactive) | > 100 µM (inactive) | > 100 µM (inactive) | > 100 µM (inactive) | > 100 µM (inactive) | > 100 µM (inactive) | > 100 µM (inactive) | > 100 µM (inactive) | > 100 µM (inactive) | > 100 µM (inactive) | > 100 µM (inactive) | – | > 100 µM (inactive) | > 100 µM (inactive) | – |
| CCc1ncc(C(C)(O)c2ccccc2)n1Cc1ccccc1 (stereo unspecified) | 70.8 µM (inactive) | 0.294 µM (active) | 17.8 µM (inactive) | 22.5 µM (inactive) | 41.5 | 48.6 µM (inactive) | 31.6 µM (inactive) | 82.2 µM (inactive) | > 100 µM (inactive) | 31.8 µM (inactive) | 0.124 µM (active) | 20.9 µM (inactive) | 33.4 µM (inactive) | 32.3 µM (inactive) | 21.5 µM (inactive) | > 100 µM (inactive) | 37.2 µM (inactive) | 34.6 µM (inactive) | 33.4 µM (inactive) | – |
| CC(C)CCNc1ncnc2[nH]ncc12 | > 100 µM (inactive) | > 100 µM (inactive) | 36.6 µM (inactive) | 65.6 µM (inactive) | > 100 | > 100 µM (inactive) | > 100 µM (inactive) | 68.9 µM (inactive) | 52.1 µM (inactive) | > 100 µM (inactive) | > 100 µM (inactive) | > 100 µM (inactive) | 81.8 µM (inactive) | 34 µM (inactive) | 60.3 µM (inactive) | > 100 µM (inactive) | – | > 100 µM (inactive) | > 100 µM (inactive) | 45 µM (inactive) |
| CCOC(=O)Cc1cc(OC)c(OC)cc1/C(Cl)=C(\CO)c1ccc(OC)c(OC)c1 | – | > 100 µM (inactive) | 30.7 µM (inactive) | > 100 µM (inactive) | > 100 | 23.8 µM (inactive) | > 100 µM (inactive) | 81.1 µM (inactive) | 39.8 µM (inactive) | > 100 µM (inactive) | > 100 µM (inactive) | > 100 µM (inactive) | > 100 µM (inactive) | 37.5 µM (inactive) | – | 37.9 µM (inactive) | – | 64 µM (inactive) | 78 µM (inactive) | – |
| C=C(C)C1Cc2c(cc(O)c3c(=O)c4ccccc4n(C)c23)O1 (stereo unspecified) | 34.8 µM (inactive) | 28.7 µM (inactive) | 27.7 µM (inactive) | > 100 µM (inactive) | > 100 | 14.9 µM (inactive) | 36 µM (inactive) | 40.9 µM (inactive) | 7.45 µM (inactive) | > 100 µM (inactive) | 69.8 µM (inactive) | – | – | > 100 µM (inactive) | 37.1 µM (inactive) | 15.6 µM (inactive) | – | 56 µM (inactive) | > 100 µM (inactive) | 24.3 µM (inactive) |
| CN(C)CCCNC(=S)S | > 100 µM (inactive) | > 100 µM (inactive) | > 100 µM (inactive) | > 100 µM (inactive) | > 100 | – | > 100 µM (inactive) | > 100 µM (inactive) | > 100 µM (inactive) | > 100 µM (inactive) | > 100 µM (inactive) | – | > 100 µM (inactive) | > 100 µM (inactive) | > 100 µM (inactive) | > 100 µM (inactive) | > 100 µM (inactive) | > 100 µM (inactive) | > 100 µM (inactive) | > 100 µM (inactive) |
| COC(=O)C12C3C4C1C1C2C3C41C(=O)O (stereo unspecified) | – | > 100 µM (inactive) | > 100 µM (inactive) | > 100 µM (inactive) | > 100 | – | > 100 µM (inactive) | > 100 µM (inactive) | > 100 µM (inactive) | > 100 µM (inactive) | – | > 100 µM (inactive) | > 100 µM (inactive) | > 100 µM (inactive) | > 100 µM (inactive) | > 100 µM (inactive) | > 100 µM (inactive) | > 100 µM (inactive) | > 100 µM (inactive) | > 100 µM (inactive) |
| Nc1ncnc2c1ncn2C1C(O)C=C(CO)C1O (stereo unspecified) | > 625 µM (inactive) | – | > 625 µM (inactive) | – | > 625 | – | > 625 µM (inactive) | – | > 625 µM (inactive) | > 625 µM (inactive) | > 625 µM (inactive) | > 625 µM (inactive) | – | > 625 µM (inactive) | > 625 µM (inactive) | – | > 625 µM (inactive) | – | – | – |
| COC(=O)N[C@H](C(=O)NC(OCc1ccccc1)C1COC(C)(C)O1)C(C)O[Si](C)(C)C(C)(C)C (stereo partly specified) | – | > 100 µM (inactive) | 26.7 µM (inactive) | 31.4 µM (inactive) | 58.3 | 38.4 µM (inactive) | 75.3 µM (inactive) | > 100 µM (inactive) | – | 24.3 µM (inactive) | > 100 µM (inactive) | – | > 100 µM (inactive) | 22.4 µM (inactive) | – | > 100 µM (inactive) | – | 88.7 µM (inactive) | > 100 µM (inactive) | > 100 µM (inactive) |
| OC1(c2ccc(Cl)cc2)c2ccc3ccccc3c2C2=N[C@H]3CCCC[C@@H]3N21 (stereo partly specified) | 38.5 µM (inactive) | 2.52 µM (inactive) | 37 µM (inactive) | 8.99 µM (inactive) | 4.75 | – | 16.8 µM (inactive) | 18.3 µM (inactive) | 3.64 µM (inactive) | – | 3.27 µM (inactive) | 7.93 µM (inactive) | 13.2 µM (inactive) | 7.73 µM (inactive) | 43.8 µM (inactive) | 3.5 µM (inactive) | 5.71 µM (inactive) | 5.82 µM (inactive) | > 100 µM (inactive) | 20.3 µM (inactive) |
| O=c1c2cc(I)ccc2nc(-c2cccs2)n1O | 48.6 µM (inactive) | 64.3 µM (inactive) | 45.1 µM (inactive) | 34.8 µM (inactive) | 33.9 | – | 37 µM (inactive) | 46.3 µM (inactive) | 31.1 µM (inactive) | 48.6 µM (inactive) | 38.8 µM (inactive) | 90.6 µM (inactive) | 48.3 µM (inactive) | 27 µM (inactive) | 52.6 µM (inactive) | > 100 µM (inactive) | 44.6 µM (inactive) | 30.1 µM (inactive) | 65.8 µM (inactive) | – |
